Results on 13 molecules are retold here after patent publication US20170087138A1 (priority 2007, published 2017).

The nature of series [1]: Solubility of salts in water, pH of the saturated solution and identity of the precipitate. The series is classed as physicochemical. To be noted: for solubility (in words): table 3; for Precipitate: whether precipitate isolated after solubility determination is identical to the compound dissolved; for Resulting pH: pH in the saturated solution of the salt.
Experimental: If the acid is a liquid it was added neat otherwise it was dissolved in the given solvent prior to addition. After mixing and precipitation stirring was continued overnight and the precipitate collected by filtration. Before drying in vacuum at 30° C. a small reference sample was withdrawn and dried at room temperature without vacuum. This procedure was included in order to test for solvates.
In series [2] the target is T1, human-homomeric 5-HT3A receptors (Homo sapiens, UniProt P46098).
T1 sequence (P46098 24-478): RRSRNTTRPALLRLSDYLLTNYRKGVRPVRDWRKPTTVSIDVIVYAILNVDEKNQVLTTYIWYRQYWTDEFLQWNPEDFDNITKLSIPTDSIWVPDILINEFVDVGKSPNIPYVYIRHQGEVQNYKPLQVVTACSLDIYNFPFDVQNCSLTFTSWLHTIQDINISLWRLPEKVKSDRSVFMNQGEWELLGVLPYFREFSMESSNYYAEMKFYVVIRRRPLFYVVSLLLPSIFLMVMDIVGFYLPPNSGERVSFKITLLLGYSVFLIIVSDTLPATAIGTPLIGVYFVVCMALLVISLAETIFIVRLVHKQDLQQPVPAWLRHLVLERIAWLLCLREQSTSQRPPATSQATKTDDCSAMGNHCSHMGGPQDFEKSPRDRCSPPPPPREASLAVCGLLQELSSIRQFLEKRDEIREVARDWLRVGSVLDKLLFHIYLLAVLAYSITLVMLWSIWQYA
Nature of the series: 5-HT3A receptor antagonism, voltage clamp in Xenopus oocytes. In kind it is cell-based. To be noted: higher concentrations (100-100000 nM).
Experimental: The experiments were carried out as follows. […] Oocytes avoid of the follicle layer were selected and incubated for 24 hours in Modified Barth's Saline buffer [88 mM NaCl, 1 mM KCl, 15 mM HEPES, 2.4 mM NaHCO3, 0.41 mM CaCl2, 0.82 mM MgSO4, 0.3 mM Ca(NO3)2] supplemented with 2 mM sodium pyruvate, 0.1 U/l penicillin and 0.1 μg/l streptomycin. Stage IV-IV oocytes were identified and injected with 12-48 nl of nuclease free water containing 14-50 pg of cRNA coding for human 5-HT3A receptors and incubated at 18° C. until they were used for electrophysiological recordings (1-7 days after injection). […] Cells were impaled with agar plugged 0.5-1 MΩ electrodes containing 3 M KCl and voltage clamped at −90 mV by a GeneClamp 500B amplifier. The oocytes were continuously perfused with Ringer buffer and the drugs were applied in the perfusate.

The test system of series [3] is extracellular levels of acetylcholine in the prefrontal cortex and ventral hippocampus. In words: Microdialysis: extracellular acetylcholine levels in freely-moving rats. In kind it is in vivo. The following applies: rat, FIGS. 10A and 10B. The method, then: The experiment was designed to evaluate the effects of compounds of the present invention on extracellular levels of acetylcholine in the prefrontal cortex and ventral hippocampus of freely-moving rats.
Male Sprague-Dawley rats, initially weighing 275-300 g, were used. The animals were housed under a 12-hr light/dark cycle under controlled conditions for regular in-door temperature (21±2° C.) and humidity (55±5%) with food and tap water available ad libitum.
Rats were anaesthetised with hypnorm/dormicum (2 ml/kg) and intracerebral guide cannulas (CMA/12) were stereotaxically implanted into the hippocampus, aiming to position the dialysis probe tip in the ventral hippocampus (co-ordinates: 5.6 mm posterior to bregma, lateral −5.0 mm, 7.0 mm ventral to dura or in the frontal cortex (co-ordinates: 3.2 mm anterior to bregma; lateral, 0.8 mm; 4.0 mm ventral to dura). Anchor screws and acrylic cement were used for fixation of the guide cannulas. The body temperature of the animals was monitored by rectal probe and maintained at 37° C. The rats were allowed to recover from surgery for 2 days, housed singly in cages. On the day of the experiment a microdialysis probe (CMA/12, 0.5 mm diameter, 3 mm length) was inserted through the guide cannula.
The probes were connected via a dual channel swivel to a microinjection pump. […]

The subject of a further series is C57/B6 mice. Nature of the series: Formalin model of neuropathic pain. The series is classed as in vivo. The following applies: in words. On the procedure: The irritation caused by the formalin injection elicits a characteristic biphasic behavioural response, as quantified by the amount of time spent licking the injured paw. The first phase (˜0-10 minutes) represents direct chemical irritation and nociception, whereas the second (˜20-30 minutes) is thought to represent pain of neuropathic origin. The two phases are separated by a quiescent period in which behaviour returns to normal. Measuring the amount of time spent licking the injured paw in the two phases assesses the effectiveness of test compounds to reduce the painful stimuli. Eight C57/B6 mice (ca. 25 g) were tested per group. Table 4 below show the amount of time spent licking the injured paw in the two phases, i.e. 0-5 minutes and 20-30 minutes post formalin injection. The amount of compound administered is calculated as the free base.

A further series has as its system healthy volunteers. Nature of the series: Multiple dose clinical trial, vital signs including blood pressure. The series is classed as in vivo, human. To be noted: up to 30 mg/day. The source says: 49 subjects received active compound and 21 subjects received placebo.

Structures can show the parent of a compound that is named as a salt.

For `Cc1ccc(Sc2ccccc2C2CCNCC2)cc1` (racemic), in series [1], the “solubility (in words)” value is given as “exceptionally high solubility” and the Precipitate entry is reported as “=start (after”.
Consider `Cc1ccc(Sc2ccccc2C2CCNCC2)cc1` [Adipicacid, 1,6-hexanedioic acid 2:1], for which the Precipitate result in series [1] is “=start”.
For `Cc1ccc(Sc2ccccc2C2CCNCC2)cc1` [Citric acid 2:1], the Precipitate result in series [1] was “=Start”.
Take `Cc1ccc(Sc2ccccc2C2CCNCC2)cc1` [Compound I, 4-[2-(4-methylphenylsulfanyl)-phenyl]piperidine]: the “maximal current, of the maximal current elicited by 5-HT itself” value in series [2] was 70-80%. Besides, in series [3], the “extra cellular level of acetylcholine in the prefrontal cortex and the hippocampus” value is “increase”. For the same molecule, in the series with C57/B6 mice, the “effect in the first phase (direct chemical irritation and nociception)” value is listed as “little effect”; the “time spent licking paws in the second phase” value is “clear and dose dependent decrease”. The blood pressure result in the series on healthy volunteers is recorded as “only at the highest dose were there signs of elevated blood pressure”.
On to `Cc1ccc(Sc2ccccc2C2CCNCC2)cc1` [D-tartaric acid, D-2,3-dihydroxy butanedioic acid 1:1], for which the Precipitate entry in series [1] was “Hydrate”.
The same measure, in the same setting: as for `Cc1ccc(Sc2ccccc2C2CCNCC2)cc1` [Fumaric acid 1:1], the entry is “=start”.
Regarding `Cc1ccc(Sc2ccccc2C2CCNCC2)cc1` [Glutamic acid 1:1], the “solubility (in words)” value in series [1] is on record as “exceptionally high solubility”.
`Cc1ccc(Sc2ccccc2C2CCNCC2)cc1` [Glutaric acid, 1,5-pentanedioic acid 1:1]: in series [1], the “solubility (in words)” value is reported as “exceptionally high solubility” and the Precipitate result is given as “=start”.
For the molecule `Cc1ccc(Sc2ccccc2C2CCNCC2)cc1` [HBr, 4-(2-(4-tolylsulfanyl)phenyl)-piperidin hydrobromide], in series [1] (hydrobromide), the “Resulting pH” value stood at 7.0 and the Precipitate entry is given as “=Start”.
In the case of `Cc1ccc(Sc2ccccc2C2CCNCC2)cc1` [HCl], the Precipitate result in series [1] is “=Start”.
Same read-out and setting: as for `Cc1ccc(Sc2ccccc2C2CCNCC2)cc1` [Oxalic acid 1:1], the entry is “=Start”.
With `Cc1ccc(Sc2ccccc2C2CCNCC2)cc1` [Phosphoric acid 1:1], the “Resulting pH” value in series [1] is given as 2.0.
As to `Cc1ccc(Sc2ccccc2C2CCNCC2)cc1` [Sebacoinic acid, 1,8-octanedioic acid 2:1], the Precipitate result in series [1] is reported as “=Start”.
